Reference: patent US12324812B2, “Glucopyranosyl derivatives and their uses” (SUNSHINE LAKE PHARMA CO., LTD., priority 2019, dated 2025)

Tests used:
human SGLT1 = human SGLT1 (Homo sapiens (Human), UniProt P13866); test: Test of inhibitory activity on SGLT1 (14C-AMG uptake in CHO cells expressing human SGLT1); assay type: cell-based; details: CHO cells expressing human SGLT1, 0.5 μM 14C-AMG, 37° C. 1 hour
Experimental: 1. Test of Inhibitory Activity on SGLT1
the following methods can be used to determine the inhibitory activity of the compounds described in the invention on SGLT-1.
mock-transfected FIP-in CHO cells (3×10^4) and CHO cells expressing human SGLT1 gene were seeded into 96-well plates respectively. The cells were incubated for 12 hours. Each well of the 96-well plate was washed with 150 μL of sodium-free buffer once. To each well was added 50 μL of sodium-containing buffer containing test compounds of different concentrations and 0.5 μM […]. The incubation mixture was incubated at 37° C. for 1 hour. To each well was added 150 μL of precooled sodium-free buffer to terminate the reaction. The cell pellet was washed with sodium-free buffer three times and the residual liquid in well was removed. To each well was added 20 μL of precooled 100 mM NaOH. The 96-well plate was vibrated at 900 rpm for 5 minutes. Scintillation fluid (80 μL) was added to each well which was then vibrated at 600 rpm for 5 minutes. The amount of 14C-AMG was quantitatively detected using liquid scintillation.

SD rats = test: Oral glucose tolerance test in SD rats; assay type: in vivo, rat; details: male SD rats, 0.1 mg/kg once by gavage, glucose 4.0 g/kg; decline rate of AUCGlu 0-60 min after sugar loading
Experimental: 2. Oral Glucose Tolerance Test and UrinaR^y Glucose Excretion Test
The following methods were used to evaluate the effects of the compounds of the invention on improving oral glucose tolerance and glycosuria excretion.
Test method: The weight and the fasting blood glucose levels of male SD rats were measured after an overnight 15-hour fast. The rats were grouped by their weights and fasting plasma glucose levels. Each test group was administered with the corresponding test compound once by gavage at a dose of 0.1 mg/Kg, and the blank control group was administered solvent. After 30 minutes, the blood glucose level (i.e. zeropoint blood glucose) of each group was measured, and then each group was immediately administered glucose (4.0 g/kg) once by gavage. The blood was drawn from the tail vein at 15, 30 and 60 minutes after glucose administration and the blood glucose concentrations of SD rats were measured continuously on blood-glucose meter. The decline rate of the area under the blood sugar curve within 60 minutes (AUCGlu 0-60 min) after sugar loading was calculated.
After blood glucose level at 60 min time point was measured, each group was placed in a metabolism cage, and the urine was collected during 1.5 hours to 24 hours and 24 hours to 48 hours after drug administration with the metabolism cage as the unit. The urine volume of each metabolism cage at each point was recorded. The urine was collected and centrifuged to obtain the supernatant. The […] had free access to food and water during the urine collection. The urine glucose concentration of SD rats at each time point was determined on automatic biochemical analyzer.

Chain of human SGLT1 (P13866 whole entry): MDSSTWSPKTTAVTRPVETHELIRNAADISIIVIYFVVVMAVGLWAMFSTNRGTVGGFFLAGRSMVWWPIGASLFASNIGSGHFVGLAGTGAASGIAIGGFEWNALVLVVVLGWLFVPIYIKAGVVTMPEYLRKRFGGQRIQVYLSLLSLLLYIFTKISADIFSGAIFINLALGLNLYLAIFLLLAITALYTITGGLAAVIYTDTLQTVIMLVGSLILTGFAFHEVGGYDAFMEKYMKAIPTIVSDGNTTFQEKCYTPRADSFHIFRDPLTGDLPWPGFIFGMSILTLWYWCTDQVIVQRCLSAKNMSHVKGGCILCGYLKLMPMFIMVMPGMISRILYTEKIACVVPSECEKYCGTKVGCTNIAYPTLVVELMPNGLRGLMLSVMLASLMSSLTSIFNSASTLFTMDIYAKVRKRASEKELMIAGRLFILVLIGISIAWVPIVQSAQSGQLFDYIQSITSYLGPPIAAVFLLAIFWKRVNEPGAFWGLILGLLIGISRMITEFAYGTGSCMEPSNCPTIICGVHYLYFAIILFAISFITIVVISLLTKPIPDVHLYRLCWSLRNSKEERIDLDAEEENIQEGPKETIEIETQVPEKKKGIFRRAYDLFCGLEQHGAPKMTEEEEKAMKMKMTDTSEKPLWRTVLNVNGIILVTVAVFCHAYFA

IC50 (human SGLT1) [pM]	Compound	hypoglycemic rate (SD rats) [%]
1180	Cc1ccc([C@]23OC[C@](CO)(O2)[C@@H](O)[C@H](O)[C@H]3O)cc1Cc1ccc(CCCC(=O)NC2(C(=O)NCCN(C)C)CCCCC2)cc1 [Example 4, N-(2-dimethylaminoethyl)-1-[4-[4-[[2-methyl-5-[(1S, 2S, 3S, 4R, 5S)-2,3,4,-trihydroxy-1-(hydroxymethyl)-6,8-dioxabicyclo [3.2.1]octane-5-yl]phenyl]methyl]phenyl]butyrylamino] cyclohexyl formamide]	26.25
250	CCC[C@H]1O[C@@H](c2ccc(C)c(Cc3ccc(CCCC(=O)NC4(C(=O)NCCN(C)C)CCCCC4)cc3)c2)[C@H](O)[C@@H](O)[C@@H]1O [Example 3, N-(2-dimethylaminoethyl)-1-[4-[4-[[2-methyl-5-[(2S, 3R, 4S, 5S, 6R)-3,4,5-trihydroxy-6-propyl-tetrahydropyran-2-yl]phenyl]methyl]phenyl]butyrylamino] cyclohexylformamide]	29.42
220	CC[C@H]1O[C@@H](c2ccc(C)c(Cc3ccc(CCCC(=O)NC4(C(=O)NCCN(C)C)CCCCC4)cc3)c2)[C@H](O)[C@@H](O)[C@@H]1O [Example 1, N-(2-dimethylaminoethyl)-1-[4-[4-[[5-[(2S, 3R, 4S, 5S, 6R)-6-ethyl-3,4,5-trihydroxy-tetrahydropyran-2-yl]-2-methyl-phenyl]methyl]phenyl]butyrylamino] cyclohexyl formamide]	31.28
